Active and inactive are the calls of the source. The rule behind the calls is not given here.
Columns and labels:
Candida albicans = test: Antifungal activity against Candida albicans ATCC 14053 at 200 ug/disk; assay type: functional, organism-based
Bacillus subtilis = test: Antibacterial activity against Bacillus subtilis ATCC 6051 at 200 ug/disk; assay type: functional; conditions: read-out: IZ
Staphylococcus aureus = test: Antibacterial activity against Staphylococcus aureus ATCC 29213 at 200 ug/disk; assay type: functional; conditions: read-out: IZ
Ascobolus = test: Antifungal activity against Ascobolus furfuraceus NRRL 6460 assessed as inhibition of radial growth rate at 200 ug/disk relative to control; assay type: functional; design: scale not given: the % may be the effect or the level left

In the case of `C[C@H]1CC[C@@H]2[C@@H](C(=O)c3c(O)c([C@]4(O)CC[C@@H](O)[C@H]5O[C@H]54)c[nH]c3=O)[C@@H](C)C=C[C@H]2C1` [APIOSPORAMIDE], the Activity (Candida albicans) is reported as “inactive”, the zone of inhibition at 200 µg/disc (Bacillus subtilis) is reported as 32 mm and the zone of inhibition at 200 µg/disc (Staphylococcus aureus) is reported as 21 mm. The Activity (Ascobolus) was 53%.

From ChEMBL document CHEMBL1150075, “Apiosporamide, a new antifungal agent from the coprophilous fungus Apiospora montagnei” (1994)
